{"source": "patent US20130209439A1", "about": "“INHIBITORS OF PDE4 BINDING TO HSP20” (THE UNIVERSITY COURT OF THE UNIVERSITY OF GLASGOW, priority 2010, published 2013)", "key": {"[1]": {"system": "neonatal cardiac myocytes", "assay": "Cardiac myocyte cell size, manual cross-sectional area", "assay_type": "cell-based, rat", "details": "24 hour isoprenaline 10 μM, 30 min pre-treatment with 10 μM peptide", "procedure": "FIG. 7. Peptide disruption of the PDE4D-HSP20 complex attenuates the hypertrophic response triggered by constant […]-agonist treatment. A, Upper panel. The area covered by isolated cardiac myocytes was used as a measure of cell size. Lower panel, Graphical depiction of the mean areas (N=100) of cells following 24 hours of indicated treatments. B, impedance measurements were used to calculate continuous normalised cell index using exCELLigence technology Normalised mean (n=4) cell index after 24 hours of indicated treatments.\nCardiomyocytes were plated out on gelatin (Sigma) pre-coated 6-well plates and placed in an incubator at 37° C. and an atmosphere of 5% CO2. After 24 h the cardiomyocytes were cultured in a serum-free condition for 48 h before experiments. The cardiomyocytes were then challenged for 24 h with either 10 μM isoprenaline alone or isoprenaline following a 30 min pre-treatment with 10 μM rolipram, 10 μM bs906 or 10 μM control peptide. Thereafter, cell size was determined on phase-contrast microscope. […] from randomly selected microscope images (400×) were captured digitally and analysed. Cross-sectional area was determined by the following formula: cross-sectional area=(radius)^2×π. Values are expressed as means±SE of five separate culture preparations. A f-test was performed to compare the two groups, and the P values are indicated."}, "[2]": {"target": "T1, His-HSP20 / GST-PDE4D5 (Homo sapiens, UniProt O14558)", "T1 construct": "made in house; host or cells: E. coli (BL21 for His-Hsp20)", "T1 sequence (O14558 1-160)": "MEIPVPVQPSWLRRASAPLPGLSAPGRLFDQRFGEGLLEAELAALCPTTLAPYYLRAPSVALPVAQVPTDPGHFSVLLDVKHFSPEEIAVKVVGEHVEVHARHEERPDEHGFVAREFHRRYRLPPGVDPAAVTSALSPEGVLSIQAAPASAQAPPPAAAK", "assay": "Hsp20/PDE4D5 ELISA assay with purified proteins", "assay_type": "binding", "details": "increasing amounts of peptide", "text": "(§1) FIG. 6. Peptide disruption of the PDE4D-HSP20 complex promotes PKA phosphorylation on Ser16. A, Upper panel. HEK293 cells were transfected with HSP20 and PDE4D5. Immunoprecipitation of HSP20 done in the presence increasing concentrations of Peptide 906 (SEQ ID NO: 36) and Peptide control (SEQ ID NO: 37) were probed for PDE4D5. Lower panel. Densitometric analysis of amount of PDE4D5 in HSP20 immunoprecipitates normalised to expression level. Data representative of n=3. B, Purified preparations of HSP20-His and PDE4D5-GST were subject to an ELISA assay containing increasing amounts of ‘Peptide 906’ and ‘peptide control’. C, Upper panel, HSP20 was transfected into HEK293 cells and treated with ‘Peptide 906’ for indicated times. Cellular lysates were blotted for HSP20 and phospho-HSP20. Middle panel, HSP20 was transfected into HEK293 cells and treated with ‘Peptide 906’ or ‘peptide control’ for indicated times. Cellular lysates were blotted for HSP20 and phospho-HSP20. Lower panel, Densitometric analysis of phosphorylation of HSP20 normalised to expression level (n=3).\nHis-HSP20 and GST-PDE4D5 were purified as previously described. […] Plates were read as soon as possible using the luminescence program on a Packard Fusion plate reader (1 s reading per well). […]"}, "[3]": {"system": "phospho-HSP20 in HEK293 cells", "assay": "HSP20 Ser16 phosphorylation in HSP20-transfected HEK293 cells treated with peptide", "assay_type": "cell-based", "details": "10 μM peptide, 0-120 min", "text": "as §1\nPolyFect transfection reagent was from Qiagen. […]\nHEK293B2 cells are a stable cell line overexpressing the GFP-tagged β2AR were cultured as previously described^48. […] Protein concentration of lysates were determined using the Bradford assay and all samples were equalised for protein concentration. […]"}}, "note": "Where no end group is shown, it is not given here."}
{"substance": "Peptide 906: stearoylated, cell-permeable disrupter peptide of PDE4D5 residues E468-K492 (SEQ ID NO: 36) (ENHHLAVGFKLLQEENSDIFQNLTK; also: stearoylated, site not given here)", "values": [{"measurement": "cell size (cross-sectional area) of cardiac myocytes", "setting": "[1]", "value": "could be rescued"}, {"measurement": "association between PDE4D5 and HSP20 in ELISA with purified proteins", "setting": "[2]", "value": "attenuated the association between PDE4D5 and HSP20"}, {"measurement": "phosphorylation of HSP20 at Ser16", "setting": "[3]", "value": "robust and significant increase in the phosphorylation of HSP20 at Ser16"}]}
